US7271239B2, “D-isomers of antimicrobial peptide” (The Research Foundation of State University of New York, priority 2004, dated 2007)
In brackets after ≈: the same amount, converted by molar mass. Several values for one entry are separate records, joined by “and”; a condition that tells them apart may be missing. Equal values may be shown once. Read-outs that look alike come from different tables or passages of the source. Where a SMILES comes first, the peptide text is derived from it. Where no end group is shown, it is not given here. [ ]: non-standard residue; d: D form.

Assays:
trypsin = assay: Susceptibility of peptides to trypsin (SDS-PAGE); type: in vitro ADME
Description: (§1) FIGS. 3A and 3B. Stability of antimicrobial peptides in (3A) Trypsin and (3B) unclarified saliva. Each peptide (3 μg in 5 μl of 0.5 M Tris-HCl buffer pH 7.5) was incubated with: 0.2 μg/ml trypsin containing PIC or no PIC for 0.5 h; or saliva (10 μl) for 1 h. The control of each compound was also incubated with Tris-HCl buffer in parallel. The samples were analyzed by 13% SDS-PAGE. The gel was stained with Coomassie brilliant blue and further analyzed for the peptide degradation by GS-700 Imaging Densitometer. The degradation was estimated by the equation: 1−(density of test band/density of control band)×100%. Ctrol: each peptide alone; T: trypsin plus peptide; T+PIC: trypsin containing PIC plus peptide; S: saliva plus peptide; S+PIC: saliva containing PIC plus peptide.
(§2) Stability of peptides in saliva and susceptibility of septides to trypsin. Three microliters of each peptide (MUC7 12-mer-D, MUC7 12-mer-L, Hsn5 12-mer, or Magainin-II, at 1 μg/μl in 0.2 M Tris-HCl buffer pH 7.5) were incubated with 11 μl of 0.2 μg/ml trypsin or saliva. This gave a final concentration of 0.16 μg/ml for trypsin, and 0.2 μg/μl for peptides (or 127, 127, 128, and 81 μM, for MUC7 12-mer-D, MUC7 12-mer-L, Hsn5 12-mer, or Magainin II, respectively). The reactions, without PIC (water instead or PIC) or with 1×PIC [50% (v/v)] were incubated 0.5 h with trypsin, and 1 hr with saliva (clarified or unclarified) at 37° C. The control of each compound was also incubated with Tris-HCl buffer in parallel. The samples were analyzed by 13% SDS-PAGE. Gels was stained with Coomassie brilliant blue R-250 and further analyzed for the peptide degradation by GS-700 Imaging Densitometer (Bio Red). The degradation was estimated by the equation: 1−(density of test band/density of control band)×100%.

[1] = Stability of peptides in saliva (SDS-PAGE); type: in vitro ADME, human
Description: as §1, §2

S. mutans = assay: microbe, parasite or virus in culture
Excerpt: (§3) The bacteria used in this study included Streptococcus mutans ATCC10449, Streptococcus mutans AU 159, Streptococcus mutans GS-5, Streptococcus mutans GS-5 mutant (^gtf BCD), Streptococcus gordonii Challis, Porphyromonas gingivalis W50, Porphyromonas gingivalis 381, A. actinomycetemcomitans NCTC 9710, Pseudomonas aeruginosa ATCC 17648, and Escherichia coli HB101. One quarter strength (25%) of brain heart infusion broth (BHI, DIFCO Laboratories, Detroit, Mich.) was used for the growth of S. mutans, S. gordonii, A. actinomycetemcomitans, Ps. aeruginosa, and E. coli. For growth of P. gingivalis, tryptic soy broth-yeast extract medium (TSBY, DIFCO Laboratories, Detroit, Mich.) supplemented with cysteine hydrochloride (0.05%), menadione (0.02 μg/ml), hemin (5 μg/ml), and potassium nitrate (0.02%) was used. All bacteria were cultured at 37° C.; Ps. aeruginosa and E. coli were grown aerobically, and the other bacteria, anaerobically. To prepare bacterial cell suspension for antibacterial activity assays, each overnight culture was harvested by centrifuge (3783 g, 10 min), washed once with 10 mM sodium phosphate-buffered saline (PBS, pH 7.2), resuspended in PBS and adjusted to a concentration of 1×10^6 cells/mL.
(§4) MICs of the peptides were determined by broth microdilution method as previously described (5). Briefly, two-fold serial dilutions of each peptide were prepared with 25% BHI medium at a volume of 200 μl per well in 96-well flat-bottom microtiter plates (Costar, Cambridge, Mass.). The final concentration of the peptides ranged from 0.78 to 100 μM, and chlorhexidine (CHX), used as a positive control, from 20 to 0.16 μM (10 to 0.078 μg/mL). The microtiter plate was inoculated with bacterial cell suspension with final concentration of 5×10^6 CFU/mL for P. gingivalis and 5×10^5 CFU/mL for the other bacterial species. After incubation at 37° C. for 48 h, the absorbance was measured at 595 nm by using a microplate reader (Model 3550, Bio-Rad, Japan) to assess the cell growth. […] The MIC value represents the median of at least three independent experiments. The minimal bactericidal concentration (MBC) was determined as follows. Aliquot (100 μl) of cell suspension was taken from two wells above MIC, centrifuged, and washed three times with PBS. Then each cell suspension was plated on TSBY agar plate, and bacterial cells were enumerated after incubation at 37° C. for 48 h. The MBC was defined as the lowest concentration of the peptide at which more than 99.9% of cells were killed compared to non-treated control.

S. gordonii Challis = assay: microbe, parasite or virus in culture; type: cell-based, Streptococcus gordonii; details: for MBC / MIC: Streptococcus gordonii
Excerpt: as §3, §4

P. gingivalis = assay: microbe, parasite or virus in culture; type: cell-based, Porphyromonas gingivalis; details: for MBC / MIC: Porphyromonas gingivalis
Excerpt: as §3, §4

[2] = test system: Ps. aeruginosa ATCC 17648; assay: microbe, parasite or virus in culture; type: cell-based, Pseudomonas aeruginosa; details: for MBC / MIC: Pseudomonas aeruginosa, ATCC17648
Excerpt: as §3, §4

E. coli HB101 = assay: microbe, parasite or virus in culture; type: cell-based, Escherichia coli; details: for MBC / MIC: Escherichia coli, HB101
Excerpt: as §3, §4

[3] = median of four strains (GS-5, GS-5 gtfBCD, AU 159, ATCC10449), 25% BHI, 48 h
[4] = median of two strains (W 50, 381)

Compound	MBC (μM) (S. mutans; median of four strains) [µM]	MIC (S. mutans; [3]) [µM]	MBC (μM) (S. gordonii Challis) [µM]	MBC (μg/ml) (S. gordonii Challis) [µg/mL]	MIC (μM) (S. gordonii Challis) [µM]	MIC (μg/ml) (S. gordonii Challis) [µg/mL]	MBC (μM) (E. coli HB101) [µM]	MIC (μM) (E. coli HB101) [µM]	degradation by trypsin (trypsin)	degradation by saliva [1]	MIC (μM) (P. gingivalis) [µM]	MBC (μM) ([2]; ATCC 17648) [µM]	MBC (μg/ml) ([2]; ATCC 17648) [µg/mL]	MIC (μM) ([2]; ATCC 17648) [µM]	MIC (μg/ml) (P. gingivalis) [µg/mL]	MIC (μg/ml) ([2]; ATCC 17648) [µg/mL]	also measured
GIGKFLHSAKKFGKAFVGEIMNS [Magainin-II]	50.0	25	>50	>123	50.0	123.5	12.5	12.5	–	–	–	–	–	–	–	–	degradation by trypsin (trypsin; 0.5 h, 37° C., SDS-PAGE): degraded; degradation by saliva ([1]; unclarified saliva, 1 h, 37° C., SDS-PAGE): degraded; MIC (S. mutans; median of four strains): 61.7 µg/mL; MIC (μM) (P. gingivalis; [4]): >100 µM; MIC (μg/ml) (P. gingivalis; [4]): >246.9 µg/mL; MBC (μM) [2]: 100.0 µM; MBC (μg/ml) [2]: 246.9 µg/mL; MIC (μM) [2]: >100 µM; MIC (μg/ml) [2]: >246.9 µg/mL; MBC (μg/ml) (E. coli HB101): 30.9 µg/mL; MIC (μg/ml) (E. coli HB101): 30.9 µg/mL
CC(C)C[C@@H](NC(=O)[C@@H](CS)NC(=O)[C@@H](CCCCN)NC(=O)[C@@H](Cc1ccc(O)cc1)NC(=O)[C@@H](CO)NC(=O)[C@@H](CCCCN)NC(=O)[C@H](N)CCCNC(=N)N)C(=O)N[C@H](Cc1c[nH]cn1)C(=O)N[C@H](CCCCN)C(=O)N[C@H](CCCNC(=N)N)C(=O)N[C@H](CS)C(=O)N[C@H](CCCNC(=N)N)C(=O)O [MUC7 12-mer-D] (H-[dR][dK][dS][dY][dK][dC][dL][dH][dK][dR][dC][dR]-OH; N-terminus and C-terminus assumed)	12.5 (≈ 19.7 µg/mL)	12.5	100.0 (≈ 158 µg/mL)	–	50.0 (≈ 78.9 µg/mL)	–	12.5 (≈ 19.7 µg/mL)	12.5 (≈ 19.7 µg/mL)	resistant to the degradation	resistant to the degradation	50.0 (≈ 78.9 µg/mL)	>100	>158	100.0 (≈ 158 µg/mL)	–	–	MBC (μM) (P. gingivalis): 100.0 µM (≈ 158 µg/mL); MBC (μg/ml) (P. gingivalis): 79.0 µg/mL (≈ 50.1 µM)
[H]/N=C(\N/C(=N/[H])NCCCCCCNC(=N)NC(=N)Nc1ccc(Cl)cc1)Nc1ccc(Cl)cc1 [Chlorhexidine, Chlorhexidine digluconate]	–	–	–	–	–	–	–	–	–	–	–	–	–	–	–	–	MBC (S. mutans; Streptococcus mutans): 2.5 µM and 1.2 µg/mL; MIC (S. mutans; Streptococcus mutans): 1.2 µg/mL; MIC (S. mutans; Streptococcus mutans, ATCC10449, 48 h): 2.5 µM; MBC (S. gordonii Challis; read-out: MBC): 4 µM; MBC (S. gordonii Challis; read-out: MBC (μg/ml)): 2 µg/mL; MIC (S. gordonii Challis; read-out: MIC): 2.5 µM; MIC (S. gordonii Challis; read-out: MIC (μg/ml)): 1.2 µg/mL; MBC (P. gingivalis; median of two strains (W 50, 381), read-out: MBC): 2.5 µM; MBC (P. gingivalis; median of two strains (W 50, 381), read-out: MBC (μg/ml)): 1.3 µg/mL; MIC (P. gingivalis; median of two strains (W 50, 381), read-out: MIC): 2.5 µM; MIC (P. gingivalis; median of two strains (W 50, 381), read-out: MIC (μg/ml)): 1.2 µg/mL; MBC ([2]; read-out: MBC): 10 µM; MBC ([2]; read-out: MBC (μg/ml)): 5.1 µg/mL; MIC ([2]; read-out: MIC): 10 µM; MIC ([2]; read-out: MIC (μg/ml)): 5.1 µg/mL; MBC (E. coli HB101; read-out: MBC): 2.5 µM; MBC (E. coli HB101; read-out: MBC (μg/ml)): 1.3 µg/mL; MIC (E. coli HB101; read-out: MIC): 2.5 µM; MIC (E. coli HB101; read-out: MIC (μg/ml)): 1.3 µg/mL
CC(C)C[C@H](NC(=O)[C@H](CS)NC(=O)[C@H](CCCCN)NC(=O)[C@H](Cc1ccc(O)cc1)NC(=O)[C@H](CO)NC(=O)[C@H](CCCCN)NC(=O)[C@@H](N)CCCNC(=N)N)C(=O)N[C@@H](Cc1c[nH]cn1)C(=O)N[C@@H](CCCCN)C(=O)N[C@@H](CCCNC(=N)N)C(=O)N[C@@H](CS)C(=O)N[C@@H](CCCNC(=N)N)C(=O)O [MUC7 12-mer-L] (H-RKSYKCLHKRCR-OH; N-terminus and C-terminus assumed)	12.5 (≈ 19.7 µg/mL)	12.5	100.0 (≈ 158 µg/mL)	–	50.0 (≈ 78.9 µg/mL)	–	25.0 (≈ 39.4 µg/mL)	25.0 (≈ 39.4 µg/mL)	degraded	degraded	>100	>100	>158	>100	>158	>158	–
AKRHHGYKRKFH [Hsn5 12-mer]	50.0	25	>100	>158	>100	>158	100.0	100.0	degraded	degraded	>100	>100	>158	>100	>158	>158	–
